Data as given in patent US12503436B2, “Compounds and compositions for treating conditions associated with STING activity” (NOVARTIS PHARMA AG, priority 2021, dated 2025).

The molecules below were run against STING (Homo sapiens, UniProt Q86WV6, G230A/H232R/R293Q/R71H) (assay: STING reporter assay in THP1-Dual KO-IFNAR2 cells (2′3′cGAMP stimulation, luciferase reporter)). Conditions: 15 μM 2′3′cGAMP stimulation, 24 h, read-out: Pharmaron, THP1_IFNAR2 STING 24 h Luci Normalized: GeoMean EC50.
Assay type: cell-based
Summary of the method: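 THP1-Dual KO-IFNAR2 cells (2×10E6 cells/mL) with compounds at 0.0017-100 μM final, stimulated with 15 μM final 2′3′cGAMP delivered by Lipofectamine 2000; 24 h at 37 °C. Luciferase in supernatant read with QUANTI-Luc Plus; EC50 derived from luminescence.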

Chain of STING (Q86WV6 whole entry R71H/G230A/H232R/R293Q): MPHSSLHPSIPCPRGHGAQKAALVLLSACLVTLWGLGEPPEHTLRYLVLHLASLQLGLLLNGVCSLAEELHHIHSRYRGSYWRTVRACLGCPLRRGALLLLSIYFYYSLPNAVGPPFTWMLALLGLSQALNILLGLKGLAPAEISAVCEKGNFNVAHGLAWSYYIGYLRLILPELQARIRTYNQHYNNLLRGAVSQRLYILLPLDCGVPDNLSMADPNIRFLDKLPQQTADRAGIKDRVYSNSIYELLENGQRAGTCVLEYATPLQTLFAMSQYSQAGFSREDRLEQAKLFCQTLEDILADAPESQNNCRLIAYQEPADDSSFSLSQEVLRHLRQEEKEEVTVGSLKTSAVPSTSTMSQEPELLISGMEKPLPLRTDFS

Row | Compound | EC50 [nM]
1 | CNC(Cc1ccc(C(F)(F)F)cc1)Cc1ccc2[nH]cc(NC(C)=O)c2c1 (stereo not shown) [Compound 506, N-(5-(2-(methylamino)-3-(4-(trifluoromethyl)phenyl)propyl)-1H-indol-3-yl)acetamide] | 5000 to 100000
2 | CC(=O)Nc1c[nH]c2ccc(CC3(c4ccc(C(F)(F)F)cc4)CCOC3)cc12 (stereo not shown) [Compound 507, N-(5-((3-(4-(trifluoromethyl)phenyl)tetrahydrofuran-3-yl)methyl)-1H-indol-3-yl)acetamide] | 5000 to 100000
3 | CC(=O)Nc1c[nH]c2ccc(CCC3(c4ccc(C(F)(F)F)cc4)COC3)cc12 [Compound 508, N-(5-(2-(3-(4-(trifluoromethyl)phenyl)oxetan-3-yl)ethyl)-1H-indol-3-yl)acetamide] | 5000 to 100000
4 | C[C@@H]1OC[C@H]1C(=O)Nc1c[nH]c2ccc(OCC[C@@H]3C[C@@H]4CN(CC(F)(F)F)C[C@@H]4C3)cc12 [Compound 509, (2S,3R)-2-methyl-N-(5-(2-((3aR,5r,6aS)-2-(2,2,2-trifluoroethyl)octahydrocyclopenta[c]pyrrol-5-yl)ethoxy)-1H-indol-3-yl)oxetane-3-carboxamide] | 1000 to 5000
5 | CO[C@H]1C[C@@](C)(C(=O)Nc2c[nH]c3ccc(OCC[C@@H]4C[C@@H]5CN(CC(F)(F)F)C[C@@H]5C4)cc23)C1 [Compound 515, (1s,3S)-3-methoxy-1-methyl-N-(5-(2-((3aR,5r,6aS)-2-(2,2,2-trifluoroethyl)octahydrocyclopenta[c]pyrrol-5-yl)ethoxy)-1H-indol-3-yl)cyclobutane-1-carboxamide] | 1000 to 5000
6 | CC(=O)Nc1c[nH]c2ccc(CC(Cc3ccc(C(F)(F)F)cc3)NC(C)=O)cc12 (stereo not shown) [Compound 516, N-(1-(3-acetamido-1H-indol-5-yl)-3-(4-(trifluoromethyl)phenyl)propan-2-yl)acetamide] | 5000 to 100000
7 | CC(=O)Nc1c[nH]c2ccc(CC(N)Cc3ccc(C(F)(F)F)cc3)cc12 (stereo not shown) [Compound 517, N-(5-(2-amino-3-(4-(trifluoromethyl)phenyl)propyl)-1H-indol-3-yl)acetamide] | 5000 to 100000
8 | O=C(Nc1c[nH]c2ccc(O[C@H]3C[C@H](c4ccc(C(F)(F)F)cc4)C3)cc12)C1COC1 [Compound 518, N-(5-(trans-3-(4-(trifluoromethyl)phenyl)cyclobutoxy)-1H-indol-3-yl)oxetane-3-carboxamide] | 200 to 1000
9 | CC[C@H](O)C(=O)Nc1c[nH]c2ccc(OCC[C@@H]3C[C@@H]4CN(CC(F)(F)F)C[C@@H]4C3)cc12 [Compound 521, (S)-2-hydroxy-N-(5-(2-((3aR,5r,6aS)-2-(2,2,2-trifluoroethyl)octahydrocyclopenta[c]pyrrol-5-yl)ethoxy)-1H-indol-3-yl)butanamide] | 200 to 1000
10 | CC(C)(O)CC(=O)Nc1c[nH]c2ccc(OCC[C@@H]3C[C@@H]4CN(CC(F)(F)F)C[C@@H]4C3)cc12 [Compound 523, 3-hydroxy-3-methyl-N-(5-(2-((3aR,5r,6aS)-2-(2,2,2-trifluoroethyl)octahydrocyclopenta[c]pyrrol-5-yl)ethoxy)-1H-indol-3-yl)butanamide] | 200 to 1000
11 | CC1OC(C)C1C(=O)Nc1c[nH]c2ccc(OCCc3ccc(C(F)(F)F)cc3)cc12 (stereo not shown) [Compound 525, 2,4-dimethyl-N-(5-(4-(trifluoromethyl)phenethoxy)-1H-indol-3-yl)oxetane-3-carboxamide] | 200 to 1000
12 | CC(=O)Nc1c[nH]c2ccc(CCOc3ccc4ncccc4c3)cc12 [Compound 526, N-(5-(2-(quinolin-6-yloxy)ethyl)-1H-indol-3-yl)acetamide] | 5000 to 100000
13 | COC(=O)C(Cc1ccc(C(F)(F)F)cc1)Cc1ccc2[nH]cc(NC(C)=O)c2c1 (stereo not shown) [Compound 527, methyl 3-(3-acetamido-1H-indol-5-yl)-2-(4-(trifluoromethyl)benzyl)propanoate] | 1000 to 5000

Other lines, results leading:

Row | EC50 [nM] | Compound
14 | 200 to 1000 | C[C@]1(C(=O)Nc2c[nH]c3ccc(OCC[C@@H]4C[C@@H]5CN(CC(F)(F)F)C[C@@H]5C4)cc23)CC[C@@H](O)CC1 [Compound 505, (1s,4S)-4-hydroxy-1-methyl-N-(5-(2-((3aR,5r,6aS)-2-(2,2,2-trifluoroethyl)octahydrocyclopenta[c]pyrrol-5-yl)ethoxy)-1H-indol-3-yl)cyclohexane-1-carboxamide]
15 | 200 to 1000 | C[C@H]1OC[C@H]1C(=O)Nc1c[nH]c2ccc(OCC[C@@H]3C[C@@H]4CN(CC(F)(F)F)C[C@@H]4C3)cc12 [Compound 510, (2R,3R)-2-methyl-N-(5-(2-((3aR,5r,6aS)-2-(2,2,2-trifluoroethyl)octahydrocyclopenta[c]pyrrol-5-yl)ethoxy)-1H-indol-3-yl)oxetane-3-carboxamide]
16 | 200 to 1000 | C[C@]1(C(=O)Nc2c[nH]c3ccc(OCC[C@@H]4C[C@@H]5CN(CC(F)(F)F)C[C@@H]5C4)cc23)C[C@@H](CO)C1 [Compound 511, (1s,3S)-3-(hydroxymethyl)-1-methyl-N-(5-(2-((3aR,5r,6aS)-2-(2,2,2-trifluoroethyl)octahydrocyclopenta[c]pyrrol-5-yl)ethoxy)-1H-indol-3-yl)cyclobutane-1-carboxamide]
17 | 200 to 1000 | C[C@]1(C(=O)Nc2c[nH]c3ccc(OCC[C@@H]4C[C@@H]5CN(CC(F)(F)F)C[C@@H]5C4)cc23)C[C@H](CO)C1 [Compound 512, (1r,3R)-3-(hydroxymethyl)-1-methyl-N-(5-(2-((3aR,5r,6aS)-2-(2,2,2-trifluoroethyl)octahydrocyclopenta[c]pyrrol-5-yl)ethoxy)-1H-indol-3-yl)cyclobutane-1-carboxamide]
18 | 200 to 1000 | C[C@]1(C(=O)Nc2c[nH]c3ccc(OCC[C@@H]4C[C@@H]5CN(CC(F)(F)F)C[C@@H]5C4)cc23)C[C@@H](O)C1 [Compound 513, (1s,3S)-3-hydroxy-1-methyl-N-(5-(2-((3aR,5r,6aS)-2-(2,2,2-trifluoroethyl)octahydrocyclopenta[c]pyrrol-5-yl)ethoxy)-1H-indol-3-yl)cyclobutane-1-carboxamide]
19 | 200 to 1000 | C[C@]1(C(=O)Nc2c[nH]c3ccc(OCC[C@@H]4C[C@@H]5CN(CC(F)(F)F)C[C@@H]5C4)cc23)C[C@H](O)C1 [Compound 514, (1r,3R)-3-hydroxy-1-methyl-N-(5-(2-((3aR,5r,6aS)-2-(2,2,2-trifluoroethyl)octahydrocyclopenta[c]pyrrol-5-yl)ethoxy)-1H-indol-3-yl)cyclobutane-l-carboxamide]
20 | 40 to 200 | CC(C)(O)CC(=O)Nc1c[nH]c2ccc(OCCc3ccc(C(F)(F)F)cc3)cc12 [Compound 519, 3-hydroxy-3-methyl-N-(5-(4-(trifluoromethyl)phenethoxy)-1H-indol-3-yl)butanamide]
21 | 40 to 200 | COCCCC(=O)Nc1c[nH]c2ccc(OCC[C@@H]3C[C@@H]4CN(CC(F)(F)F)C[C@@H]4C3)cc12 [Compound 520, 4-methoxy-N-(5-(2-((3aR,5r,6aS)-2-(2,2,2-trifluoroethyl)octahydrocyclopenta[c]pyrrol-5-yl)ethoxy)-1H-indol-3-yl)butanamide]
22 | 40 to 200 | CC[C@@H](O)C(=O)Nc1c[nH]c2ccc(OCC[C@@H]3C[C@@H]4CN(CC(F)(F)F)C[C@@H]4C3)cc12 [Compound 522, (R)-2-hydroxy-N-(5-(2-((3aR,5r,6aS)-2-(2,2,2-trifluoroethyl)octahydrocyclopenta[c]pyrrol-5-yl)ethoxy)-1H-indol-3-yl)butanamide]
